In the NIST ThermoML archive (doi:10.1021/je800047t):
Values joined by “and” are separate entries in the source; they are usually repeats but may differ in a detail not shown here. Equal entries are not always repeated.

Assay: molar heat capacity at constant pressure
Conditions: 101.33 kPa, Small sample (50 mg) DSC

O[C@@H]1CCCC[C@@H]1O [cis-1,2-cyclohexanediol]
Conditions | molar heat capacity at constant pressure
174.3 K, Crystal 2 | 89.6 J/K/mol
185.2 K, Crystal 2 | 92.7 J/K/mol
193.1 K, Crystal 2 | 100 J/K/mol
202.2 K, Crystal 2 | 101.1 J/K/mol
215.9 K, Crystal 2 | 111 J/K/mol
230.1 K, Crystal 2 | 121.1 J/K/mol
248.1 K, Crystal 2 | 127.3 J/K/mol
259.2 K, Crystal 2 | 134.9 J/K/mol
266.2 K, Crystal 2 | 138.2 J/K/mol
273.1 K, Crystal 2 | 141.4 J/K/mol
278.2 K, Crystal 2 | 148.8 J/K/mol
283 K, Crystal 2 | 151.1 J/K/mol
288.2 K, Crystal 2 | 152 J/K/mol and 154.2 J/K/mol
293.2 K, Crystal 2 | 157.8 J/K/mol and 157.6 J/K/mol
298.1 K, Crystal 2 | 160.4 J/K/mol
300.2 K, Crystal 2 | 162 J/K/mol and 163.9 J/K/mol
308.2 K, Crystal 2 | 168 J/K/mol and 166.4 J/K/mol
316 K, Crystal 2 | 171.9 J/K/mol
323.3 K, Crystal 2 | 175 J/K/mol
328.2 K, Crystal 2 | 177.2 J/K/mol
333.2 K, Crystal 2 | 180.8 J/K/mol
339.2 K, Crystal 2 | 184.3 J/K/mol
344.1 K, Crystal 2 | 186.2 J/K/mol
346.3 K, Crystal 2 | 190 J/K/mol
348.1 K, Crystal 2 | 191.8 J/K/mol
350.2 K, Crystal 2 | 192.5 J/K/mol
363.1 K, Crystal 1 | 279.6 J/K/mol
366.2 K, Crystal 1 | 284.9 J/K/mol
367.2 K, Crystal 1 | 290.4 J/K/mol
368.2 K, Crystal 1 | 292.8 J/K/mol
378.1 K, Liquid | 297.9 J/K/mol
383.2 K, Liquid | 300 J/K/mol
385.2 K, Liquid | 302.5 J/K/mol
388 K, Liquid | 304.1 J/K/mol
393.2 K, Liquid | 305 J/K/mol
397.3 K, Liquid | 306.3 J/K/mol
403.1 K, Liquid | 310.5 J/K/mol
413.2 K, Liquid | 312.8 J/K/mol

O[C@H]1CC[C@H](O)CC1 [trans-1,4-cyclohexanediol]
Conditions | molar heat capacity at constant pressure
176.5 K, Crystal | 100.6 J/K/mol
183.2 K, Crystal | 105.6 J/K/mol
189.1 K, Crystal | 109.5 J/K/mol
198.9 K, Crystal | 115.4 J/K/mol
206.9 K, Crystal | 115.6 J/K/mol
215 K, Crystal | 121 J/K/mol
222.2 K, Crystal | 124.6 J/K/mol
230.2 K, Crystal | 127.3 J/K/mol
238.3 K, Crystal | 135.4 J/K/mol
258.3 K, Crystal | 142.2 J/K/mol
273.2 K, Crystal | 145.6 J/K/mol
278.1 K, Crystal | 148.8 J/K/mol and 150.6 J/K/mol and 149 J/K/mol
283.2 K, Crystal | 151 J/K/mol and 151.1 J/K/mol
288.2 K, Crystal | 154 J/K/mol
293.2 K, Crystal | 156.4 J/K/mol and 157.4 J/K/mol
303.2 K, Crystal | 167 J/K/mol
308.1 K, Crystal | 168.1 J/K/mol and 169.9 J/K/mol
313.2 K, Crystal | 173 J/K/mol
323.3 K, Crystal | 174 J/K/mol
333.1 K, Crystal | 177.4 J/K/mol
343.2 K, Crystal | 181.4 J/K/mol and 183.9 J/K/mol
353.1 K, Crystal | 187.1 J/K/mol
363.2 K, Crystal | 190.5 J/K/mol
373.2 K, Crystal | 198 J/K/mol
393.1 K, Liquid | 310.7 J/K/mol
403.2 K, Liquid | 313 J/K/mol
